Data reported in PubChem BioAssay (NCI).
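Cells were grown in 96-well plates and exposed to each compound for 48 hours at five concentrations; endpoints were interpolated linearly between bracketing concentrations, or set to the highest concentration if not reached. The concentration for 50% growth inhibition is given as GI50. TGI: total growth inhibition.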

Columns and labels:
Assay in all cases: DTP human tumour cell line panel, 48 h
NCI-H23 lung = test system: NCI-H23 lung
DU-145 prostate = test system: DU-145 prostate
CCRF-CEM leukemia = test system: CCRF-CEM leukemia
PC-3 prostate = test system: PC-3 prostate
HS 578T breast = test system: HS 578T breast
T-47D breast = test system: T-47D breast

| Structure (SMILES) | TGI (NCI-H23 lung) [µM] | TGI (DU-145 prostate) [µM] | TGI (CCRF-CEM leukemia) [µM] | TGI (PC-3 prostate) [µM] | TGI (HS 578T breast) [µM] | TGI (T-47D breast) [µM] | GI50 (NCI-H23 lung) [µM] | GI50 (DU-145 prostate) [µM] | GI50 (CCRF-CEM leukemia) [µM] | GI50 (PC-3 prostate) [µM] | GI50 (HS 578T breast) [µM] | GI50 (T-47D breast) [µM] |
| --- | --- | --- | --- | --- | --- | --- | --- | --- | --- | --- | --- | --- |
| O=S(=O)(c1ccc(NC(=S)N/N=C/c2ccccc2O)cc1)N1CCCCC1 | 6.94 | > 47.4 | 1.66 | 21.1 | 40.5 | > 52.8 |  |  |  |  |  |  |
| COc1cc2c(cc1OC)C(=O)C(Br)CC2 (configuration not stated) | 10.9 | 16.2 | 11.9 | 23.1 | 37.4 | 5.06 | 2.89 | 4.61 | 2.82 | 8.8 | 7.48 | 2.25 |
| COc1ccc(-c2cc(-c3ccc(Nc4nc(Nc5ccc(Cl)cc5)nc(Nc5ccc(Cl)cc5)n4)cc3)nc(N)c2C#N)cc1 | > 87.7 | 17 | > 27.6 |  | 5.68 | 5.39 | 3.52 | 3.91 | 0.929 | 0.982 | 1.48 | 0.894 |
| O=C(CCCc1c[nH]c2ccccc12)NC1CC(=O)c2c(Br)sc(Br)c21 (configuration not stated) | 26.1 | > 100 | > 100 | 75.7 | 51.3 | > 100 | 12.2 | 23.5 | 12.9 | 21 | 6.44 | 26.5 |
| CCCCCCCCCCCCCCCCCCNC(=O)[C@H]1CSC(c2ccc(OC)c(F)c2)N1 (some centres not stated) | 27 | > 54.6 | 8.13 | 28.3 | 20.3 | 6.57 | 7.22 | 24.2 | 0.731 | 6.09 | 4.29 | 2.21 |
| C[C@H]1[C@H](OC(=O)CCC(=O)O)O[C@@H]2O[C@]3(C)CC[C@H]4[C@H](C)CC[C@@H]1[C@@]24OO3 | 10.7 | 20.1 | 19.7 | > 100 | 36.9 | 22.7 | 0.383 | 6.48 | 0.452 | 0.0886 | 0.986 | 0.4 |
| CCOC(=O)c1cnc(SCc2ccc(Cl)c(Cl)c2)nc1N1CC1 | 14.5 | 9.73 | 28.1 | 15.2 | 7.01 | 19.5 | 3.62 | 2.98 | 2.82 | 2.74 | 2.31 | 3.15 |
| COc1cc(C(=O)O)c([N+](=O)[O-])c(OC)c1OC | > 100 | > 100 |  | > 100 | > 100 | > 100 |  |  |  |  |  |  |
| Cc1cc2c(C)c3cc(C)c(N)cc3nc2cc1N | 4.28 | 5.3 | 10.6 | 7.06 | 7.95 | 5.28 | 0.852 | 0.749 | 0.93 | 1.11 | 1.64 | 0.754 |
| N#C/C(=C\c1c(-c2ccccc2)[nH]c2ccccc12)C(=O)c1ccc(Cl)cc1 | 38.5 | 16.7 | > 100 | > 70.3 | 9.27 | 18.4 | 3.71 | 3.54 | 2.48 | 3.42 | 1.56 | 2.89 |
| C1CCC([PH+](C2CCCCC2)C2CCCCC2[PH+](C2CCCCC2)C2CCCCC2)CC1.[Au].[CH-]1CCCCC1C1CCCC[N-]1 (configuration not stated) |  | 2.44 | > 100 | 5.26 |  |  |  | 0.401 | 0.426 | 0.249 |  |  |
| Nc1cccc2c1C(=O)N(C1CCC(=O)NC1=O)C2=O (configuration not stated) | > 100 | > 100 | > 100 | > 100 | > 100 | > 100 | > 100 | > 100 | > 100 | > 100 | > 100 | > 100 |
| Cn1cc(-c2ccc(=O)n(Cc3cccc(-c4ncc(OCCN5CCOCC5)cn4)c3)n2)cn1 | > 100 | > 100 | > 100 | > 100 | > 100 | > 81.5 | 32.9 | > 100 | 82.1 | 49.1 | > 100 | 20.9 |
| COc1cccc(NC(=O)c2sc3nc4c(cc3c2N)CCCC4)c1 | > 100 | 56.1 | 19.2 | > 100 | 54.6 | > 100 | 0.813 | 0.542 | 0.347 | 0.504 | 0.75 | 0.529 |
| CCCCCCCCCCCCc1ccc(C(=O)/C=C/C(=O)O)cc1 | 4.65 | 20.9 | 5.29 | 26.6 | 42.1 | 4.11 | 1.89 | 8.15 | 0.547 | 8.12 | 7.61 | 1.67 |
| O=C1C2CC(Cl)C(SSC3CC4C(=O)N(SC(Cl)(Cl)C(Cl)Cl)C(=O)C4CC3Cl)CC2C(=O)N1SC(Cl)(Cl)C(Cl)Cl (configuration not stated) | 5.65 | 9.44 |  | 2.79 | > 22.8 | 7.18 |  |  |  |  |  |  |
| COc1ccccc1C(=O)/C=C/c1cc2cccc(OC)c2[nH]c1=O | 2.04 | 0.714 | > 37.9 | 2.27 | 10.8 | 12.8 | 0.125 | 0.0331 | < 0.0182 | 0.0503 | 0.0163 | 0.626 |
| NC(N)=NC(CC(=O)O)c1ccccc1 (configuration not stated) | > 100 | > 100 |  | > 100 | > 100 | > 100 |  |  |  |  |  |  |
| COc1ccc(N(C)c2nc(C)nc3ccccc23)cc1 | 20.8 |  | > 100 | 36.8 | > 100 | > 100 | < 0.01 |  | < 0.01 | < 0.01 | < 0.01 | 14.2 |
| O=C(c1cccs1)c1c(C(F)(F)F)n([O-])c2ccc(C(F)(F)F)cc2[n+]1=O | 1 | 0.576 | 2.11 | 0.259 |  | 1.43 | 0.353 | 0.234 | 0.224 | 0.118 |  | 0.51 |
